Assay results reported in US20090017486A1, “METHOD AND TEST KIT FOR THE IDENTIFICATION OF COMPOUNDS SPECIFICALLY MODULATING THE ACTION OF CORTICAL AXO-AXONIC CELLS” (priority 2005, published 2009).
Entries after “also recorded” stand apart in the source; their conditions may differ.

Tests used:
[1] = test system: pyramidal cell (soma and axon initial segment); assay: Pressure application of GABA to soma and axon initial segment of pyramidal cells; format: cell-based, rat
Experimental: (§1) For perforated patch experiments, 3 mg/ml gramicidin (Sigma) was used, dissolved in DMSO and diluted to a final concentration of 9 μg/ml in the low [Cl^−]in pipette solution. […] Membrane potentials were corrected for junction potentials. […] Pressure waves (˜5 μm in diameter) and pipette positions on the soma and along the axon initial segment (30-40 μm from the soma) were imaged and the postsynaptic cell membrane was ruptured by gentle suction pulses to allow biocytin labelling and post-hoc comparison of pipette positions with light microscopic reconstructions. Cells were excluded from analysis if basal dendrites were closer than ˜30 μm to the pressure pipette and/or initial segment.
To characterize the interaction of axo-axonic cells (AACs) and their postsynaptic neurons, first the reversal potential of GABAergic inputs arriving to the perisomatic region of pyramidal cells was determined, elicited by AACs and basket cells in layers 2/3 of rat somatosensory cortex in vitro (FIG. 1). Paired recordings of presynaptic interneurons and postsynaptic pyramidal cells were performed using the gramicidin perforated patch placed onto the axon hillock between the soma and the initial segment. […] AACs were identified based on light microscopic reconstructions and analysis showing axonal candles or cartridges specific to this cell type [Szentagothai and Arbib (1974); Somogyi (1977)]

[2] = test system: axo-axonic cells (AACs) and postsynaptic neurons, layer 2/3 somatosensory cortex slices; assay: Multiple whole-cell recordings of synaptic event sequences triggered by AACs in rat cortical slices; format: cell-based
Experimental: as §1

human axo-axonic cell = conditions: gabazine 20 μM
Experimental: Anaesthesia was induced with intravenous midazolam and fentanyl (0.03 mg/kg and 1-2 μg/kg, respectively). A bolus dose of propofol (1-2 mg/kg) was administered intravenously. To facilitate endotracheal intubation, the patient recieved 0.5 mg/kg rocuronium. After 120 seconds, the trachea was intubated and the patient was ventilated with a mixture of O2—N2O at a ratio of 1:2. Anaesthesia was maintained with sevoflurane at MAC volume of 1.2-1.5. Slices were incubated at room temperature for 1 hour in a solution composed of 130 mM NaCl, 3.5 mM KCl, 1 mM NaH2PO4, 24 mM NaHCO3, 1 mM CaCl2, 3 mM MgSO4 and 10 mM D(+)-glucose, saturated with 95% O2 and 5% CO2. The solution used during recordings differed only in that it contained 3 mM CaCl2 and 1.5 mM MgSO4. Recordings were obtained at ˜35° C. from up to four concomitantly recorded cells visualized in layer 2/3 by infrared differential interference contrast videomicroscopy (Olympus BX60WI microscope, Hamamatsu CCD camera, Luigs & Neumann Infrapatch set-up and two HEKA EPC 10/double patch-clamp amplifiers). Signals were filtered at 8 kHz, digitized at 16 kHz and analyzed with PULSE software (HEKA). Micropipettes (5-7 MW) were filled with three types of solutions. […] Access resistance was continuously monitored throughout perforated patch experiments to check membrane rupture. […]

[3] = gabazine 20 μM, low [Cl−]in, reversible on washout

In the case of NCCCC(=O)O [GABA, gamma-aminobutyric acid], the “reversal potential of GABA response, soma” value ([1]; GABA 1 mM pressure application to soma, perforated patch, n=7) is reported as −71.2±2.7 mV, the “trials with spikes triggered below somatic threshold potential” value ([1]; GABA to axon initial segment, high [Cl−]in, whole cell mode, n=4 cells) is reported as 7±3 % of trials and the “threshold potential of spikes triggered by GABA applied to axon initial segment” value ([1]; high [Cl−]in intracellular solution, whole cell mode, n=4 cells) is reported as −64.2±2.8 mV. The “triggering short latency spikes from hyperpolarized membrane potentials” value ([1]; pressure application of GABA to axon initial segment, high [Cl−]in) was “not effective”.
For NS(=O)(=O)c1cccc2c1c([N+](=O)[O-])cc1nc(O)c(O)nc12 [NBQX], the “effect on unitary IPSP” value ([2]; NBQX 10 μM) was “no effect” and the “effect on disynaptic EPSPs triggered by AACs” value ([2]; NBQX 10 μM, recovery upon washout) was “blocked; also recorded: reversibly eliminated”.
For COc1ccc(-c2ccc(=N)n(CCCC(=O)O)n2)cc1 [gabazine], the “effect on disynaptic EPSPs triggered by AACs” value [2, 3] was “blocked”, the “effect on monosynaptic (unitary) IPSPs” value [2, 3] was “blocked” and the “effect on disynaptic EPSPs and downstream spikes” value (human axo-axonic cell) was “blocked”.
